Measured values from patent US20060128792A1, “Deguelin as a chemopreventive agent for lung cancer” (priority 2002, published 2006).
Where “and” joins values, the source holds several entries; their conditions need not be identical. Equal values may be shown once.

What was measured:
NHBE = assay: MTT assay, growth inhibition / viability of normal HBE cells; conditions: for Avg. % con / MTT value, mean of replicates (unheaded line) / MTT value, replicate (unheaded line): NHBE, 3 days
Procedure: Cells and Cell Cultures. […] Normal HBE (NHBE) cells were purchased from Clontech (Palo Alto, Calif.). […] Cells were grown on tissue culture plasticware (Falcon; Bector, Dickinson, Bedford, Mass.) at 37° C. in a humidified atmosphere with 5% C02. For the analyses of growth inhibition, cell cycle, and induction of apoptosis by deguelin, NHBE cells, HBE cell lines, and squamous HBE cells were cultured in KSFM (Life Technologies) containing 2 μg/ml of EGF and bovine pitutary extract.
Cell Treatment with Deguelin and Determination of Growth Inhibition. To measure the effects of deguelin on cell proliferation, NHBE, 1799 cells, 1198 cells, and 1170 cells were transferred onto 96-well plates at densities ranging from 2×10^3 to 4×10^3 cells/well. After 1 day, the cells were changed to the fresh medium containing various concentrations of deguelin dissolved in DMSO (final concentration, 0.1%). Control cultures received 0.1% dimethyl sulfoxide (DMSO) as did the deguelin-treated cultures. […] After 1 day of infection, cells were treated with 10^−7 M or 10^−6 M of deguelin, or 0.1% DMSO as a control, and then incubated for 2 days. […] Six replicate wells were used for each analysis.

[1] = test system: cell line not named (Table 1); assay: MTT assay, growth inhibition by deguelin; format: cell-based; conditions: 3 days
H226B = assay: MTT assay, growth inhibition by deguelin or deguelin derivatives; format: cell-based; conditions: 3 days
[2] = test system: chorioallantoic membrane (CAM) vessel formation; assay: CAM assay, anti-angiogenic activity; format: in vivo, chick embryos
Procedure: The anti-angiogenic activity of deguelin was assessed using a CAM assay. Chick embryos were incubation for 3 days after which, about 2 ml of egg albumin was removed from the embryo with a hypodermic needle to allow the CAM and yolk sac to drop away from the shell membrane. On day 3.5, the shell was punched out and removed and the shell membrane was peeled away. […] After the two day incubation period, 500 μl of 10% fat emulsion was injected into the chorioallantoic membrane and observed microscopically.
Retinoic acid, an anti-angiogenic compound, was used as a positive control for determining anti-angiogenic response. […] This independent experiment was repeated three times with more than 20 eggs.

H661 = assay: MTT assay, growth inhibition by deguelin or deguelin derivatives; format: cell-based; conditions: 3 days
H358 = assay: as above; format: cell-based; conditions: H358, 3 days
[3] = test system: H1299 and squamous HBE cells; assay: Apoptosis by flow cytometry (FACS); format: cell-based; conditions: 10^−7 M deguelin, by day 2 or day 3
Procedure: Apoptosis assay. Normal, premalignant, and malignant HBE cells were exposed to v various doses of deguelin for 3 days. […] Both adherent and floating cells were combined for the assessment of apoptosis using the APO-BRDU staining kit (Phoenix Flow Systems, San Diego, Calif.). Briefly, floating and attached cells dispersed with trypsin-EDTA were pelleted, washed, and fixed by 1% paraformaldehyde followed by 70% ethanol. The fixed cells were washed and incubated with DNA-labeling solution containing terminal deoxynucleotidyl transferase (TdT) reaction buffer, TdT enzyme, and bromodeoxyuridine triphosphate (Br-dUTP). Cells were rinsed, resuspended with fluorescein-PRB-I antibody solution, and analyzed by flow cytometry in the presence of PI/RNase solution. […] A dual display of DNA area (linear red fluorescence) and Br-dUTP incorporation (FITC-PRB-1) was used to determine the percentage of apoptotic cells.
The apoptotic effect of deguelin was further assessed in HBE cells. […] Apoptosis was analyzed by flow cytometry as described above. […] To confirm the apoptotic activity in these cells, bax and bcl-2 expression were analyzed by western blotting. […] Thus, it was determined that deguelin increases bax expression thereby inducing the apoptotic activity in lung cancer cells.

1799 cells = assay: Cell cycle analysis by flow cytometry (propidium iodide); format: cell-based; conditions: 3 days
Procedure: (§1) Cell Cycle Analysis. Cells were plated on 10-cm dishes 1 day before treatment. After treatment with deguelin for 3 days, floating and adherent cells were harvested by trypsinization, fixed with 1% paraformaldehyde and 70% ethanol, stained with propidium iodide PI), and subjected to flow cytomnetric analysis to determine the percentages of cells in specific phases of the cell cycle (G1, S, and G2/M) as described previously (Sun et al., 1997).

NHBE cells = assay: as above; format: cell-based; conditions: 3 days
Procedure: as §1

COc1cc2c(cc1OC)[C@@H]1C(=O)c3ccc4c(c3O[C@@H]1CO2)C=CC(C)(C)O4 [Deguelin]
effect on NHBE viability (NHBE; MTT assay, 10^−9 M to 10^−7 M, up to 3 days): minimal effect | Avg. % con (NHBE; deguelin 10^−6M): 0.23 % con | MTT value, mean of replicates (unheaded line) (NHBE; deguelin 10^−6M): 0.099 | MTT value, replicate (unheaded line) (NHBE; deguelin 10^−6M): 0.129 and 0.082 and 0.087 | Avg. % con (NHBE; deguelin 10^−8M): 0.53 % con | MTT value, mean of replicates (unheaded line) (NHBE; deguelin 10^−8M): 0.229 | MTT value, replicate (unheaded line) (NHBE; deguelin 10^−8M): 0.249 and 0.227 and 0.21 | Avg. % con (NHBE; deguelin 10^−10M): 0.81 % con | MTT value, mean of replicates (unheaded line) (NHBE; deguelin 10^−10M): 0.347 | MTT value, replicate (unheaded line) (NHBE; deguelin 10^−10M): 0.355 and 0.341 and 0.346 | Avg. % con (NHBE; deguelin 10^−12M): 0.90 % con | MTT value, mean of replicates (unheaded line) (NHBE; deguelin 10^−12M): 0.386 | MTT value, replicate (unheaded line) (NHBE; deguelin 10^−12M): 0.417 and 0.365 and 0.377 | Avg. % con ([1]; deguelin 10^−6M): 0.82 % con | MTT value, mean of replicates (unheaded line) ([1]; deguelin 10^−6M): 0.304 | MTT value, replicate (unheaded line) ([1]; deguelin 10^−6M): 0.306 (2×) and 0.299 and 0.305 | Avg. % con ([1]; deguelin 10^−8M): 0.78 % con | MTT value, mean of replicates (unheaded line) ([1]; deguelin 10^−8M): 0.2908 | MTT value, replicate (unheaded line) ([1]; deguelin 10^−8M): 0.288 and 0.291 and 0.283 and 0.301 | Avg. % con ([1]; deguelin 10^−10M): 0.90 % con | MTT value, mean of replicates (unheaded line) ([1]; deguelin 10^−10M): 0.3348 | MTT value, replicate (unheaded line) ([1]; deguelin 10^−10M): 0.337 and 0.327 and 0.343 and 0.332 | Avg. % con ([1]; deguelin 10^−12M): 1.01 % con | MTT value, mean of replicates (unheaded line) ([1]; deguelin 10^−12M): 0.3768 | MTT value, replicate (unheaded line) ([1]; deguelin 10^−12M): 0.392 and 0.386 and 0.367 and 0.362 | Avg. % con (H226B; deguelin 10^−6M): 0.34 % con | MTT value, mean of replicates (unheaded line) (H226B; deguelin 10^−6M): 0.113 | MTT value, replicate (unheaded line) (H226B; deguelin 10^−6M): 0.117 (2×) and 0.106 | Avg. % con (H226B; deguelin 10^−8M): 0.46 % con | MTT value, mean of replicates (unheaded line) (H226B; deguelin 10^−8M): 0.150 | MTT value, replicate (unheaded line) (H226B; deguelin 10^−8M): 0.153 and 0.147 and 0.149 | Avg. % con (H226B; deguelin 10^−10M): 0.86 % con | MTT value, mean of replicates (unheaded line) (H226B; deguelin 10^−10M): 0.283 | MTT value, replicate (unheaded line) (H226B; deguelin 10^−10M): 0.295 and 0.282 and 0.272 | Avg. % con (H226B; deguelin 10^−12M): 0.91 % con | MTT value, mean of replicates (unheaded line) (H226B; deguelin 10^−12M): 0.299 | MTT value, replicate (unheaded line) (H226B; deguelin 10^−12M): 0.274 and 0.32 and 0.304 | anti-angiogenic activity (percentage of positive eggs) ([2]; 5 nmol/egg, 2 days): 59.2% | egg lethality ([2]; CAM assay, without any signs of thrombosis and hemorrhage): negligible | Avg. % con (H661; deguelin 10^−6M): 0.5756 % con | MTT value, mean of replicates (unheaded line) (H661; deguelin 10^−6M): 0.0597 | MTT value, replicate (unheaded line) (H661; deguelin 10^−6M): 0.059 and 0.055 and 0.065 | Avg. % con (H661; deguelin 10^−8M): 0.60 % con | MTT value, mean of replicates (unheaded line) (H661; deguelin 10^−8M): 0.063 | MTT value, replicate (unheaded line) (H661; deguelin 10^−8M): 0.062 and 0.056 and 0.07 | Avg. % con (H661; deguelin 10^−10M): 0.80 % con | MTT value, mean of replicates (unheaded line) (H661; deguelin 10^−10M): 0.083 | MTT value, replicate (unheaded line) (H661; deguelin 10^−10M): 0.087 and 0.093 and 0.07 | Avg. % con (H661; deguelin 10^−12M): 0.86 % con | MTT value, mean of replicates (unheaded line) (H661; deguelin 10^−12M): 0.089 | MTT value, replicate (unheaded line) (H661; deguelin 10^−12M): 0.09 and 0.084 and 0.094 | Avg. % con (H358; deguelin 10^−6M): 0.68 % con | MTT value, mean of replicates (unheaded line) (H358; deguelin 10^−6M): 0.111 | MTT value, replicate (unheaded line) (H358; deguelin 10^−6M): 0.108 and 0.113 and 0.112 | Avg. % con (H358; deguelin 10^−8M): 0.74 % con | MTT value, mean of replicates (unheaded line) (H358; deguelin 10^−8M): 0.122 | MTT value, replicate (unheaded line) (H358; deguelin 10^−8M): 0.114 and 0.128 and 0.125 | Avg. % con (H358; deguelin 10^−10M): 0.79 % con | MTT value, mean of replicates (unheaded line) (H358; deguelin 10^−10M): 0.129 | MTT value, replicate (unheaded line) (H358; deguelin 10^−10M): 0.122 and 0.12 and 0.146 | Avg. % con (H358; deguelin 10^−12M): 0.87 % con | MTT value, mean of replicates (unheaded line) (H358; deguelin 10^−12M): 0.143 | MTT value, replicate (unheaded line) (H358; deguelin 10^−12M): 0.148 and 0.143 and 0.139 | apoptosis (flow cytometry) [3]: ≥ 60% | 1799 cells accumulated at the G2/M phase (1799 cells; 10^−7 M deguelin): 40.2% | 1799 cells accumulated at the G2/M phase (1799 cells; 10^−8 M deguelin): 17.3% | change in NHBE cell cycle (NHBE cells): did not induce detectable change
